Source: PubChem BioAssay AID248 (DTP/NCI, 2004)
Inconclusive results and toxic doses are left out. Rule as the data show it: active = T/C of 150% or more; inactive = T/C below 125%.

Tested on: L1210 leukemia ip in BDF1 mice, survival T/C
Assay: NCI In Vivo Anticancer Drug Screen. Data for tumor model L1210 Leukemia (intraperitoneal) in B6D2F1 (BDF1) mice
Details: endpoint: mean survival time, higher = longer survival
How it was run: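 Antitumor effect is assessed in tumor-bearing animals. Survival in the compound arm is compared with a vehicle-dosed control arm and expressed as their quotient.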

[1] = dose: 100.0 mg/kg/injection, schedule: Q04DX003 (ip), vehicle: saline with Tween-80
[2] = dose: 200.0 mg/kg/injection, schedule: Q04DX003 (ip), vehicle: saline with Tween-80
[3] = dose: 400.0 mg/kg/injection, schedule: Q04DX003 (ip), vehicle: saline with Tween-80
[4] = dose: 100.0 mg/kg/injection, schedule: Q01DX001 (ip), vehicle: saline
[5] = dose: 200.0 mg/kg/injection, schedule: Q01DX001 (ip), vehicle: saline
[6] = dose: 100.0 mg/kg/injection, schedule: Q01DX001 (ip), vehicle: carboxymethylcellulose (CMC)
[7] = dose: 200.0 mg/kg/injection, schedule: Q01DX001 (ip), vehicle: carboxymethylcellulose (CMC)
[8] = dose: 400.0 mg/kg/injection, schedule: Q01DX001 (ip), vehicle: carboxymethylcellulose (CMC)
[9] = dose: 25.0 mg/kg/injection, schedule: Q04DX003 (ip), vehicle: saline
[10] = dose: 50.0 mg/kg/injection, schedule: Q04DX003 (ip), vehicle: saline
[11] = dose: 100.0 mg/kg/injection, schedule: Q04DX003 (ip), vehicle: saline
[12] = dose: 100.0 mg/kg/injection, schedule: Q01DX009 (ip), vehicle: saline with Tween-80
[13] = dose: 200.0 mg/kg/injection, schedule: Q01DX009 (ip), vehicle: saline with Tween-80
[14] = dose: 400.0 mg/kg/injection, schedule: Q01DX009 (ip), vehicle: saline with Tween-80
[15] = dose: 100.0 mg/kg/injection, schedule: Q04DX003 (ip), vehicle: Klucel (hydroxypropylcellulose) (HPC)
[16] = dose: 200.0 mg/kg/injection, schedule: Q04DX003 (ip), vehicle: Klucel (hydroxypropylcellulose) (HPC)
[17] = dose: 400.0 mg/kg/injection, schedule: Q04DX003 (ip), vehicle: Klucel (hydroxypropylcellulose) (HPC)
[18] = dose: 100.0 mg/kg/injection, schedule: Q01DX009 (ip), vehicle: Klucel (hydroxypropylcellulose) (HPC)
[19] = dose: 200.0 mg/kg/injection, schedule: Q01DX009 (ip), vehicle: Klucel (hydroxypropylcellulose) (HPC)
[20] = dose: 400.0 mg/kg/injection, schedule: Q01DX009 (ip), vehicle: Klucel (hydroxypropylcellulose) (HPC)
[21] = dose: 100.0 mg/kg/injection, schedule: Q01DX009 (ip), vehicle: saline
[22] = dose: 200.0 mg/kg/injection, schedule: Q01DX009 (ip), vehicle: saline
[23] = dose: 200.0 mg/kg/injection, schedule: Q04DX003 (ip), vehicle: saline
[24] = dose: 400.0 mg/kg/injection, schedule: Q04DX003 (ip), vehicle: saline
[25] = dose: 50.0 mg/kg/injection, schedule: Q01DX001 (ip), vehicle: saline
[26] = dose: 400.0 mg/kg/injection, schedule: Q01DX001 (ip), vehicle: saline

Measured: T/C

CC(C)(S)CNCCSC(=O)c1ccccc1
inactive: [1] 102 % of control | [2] 100 % of control | [3] 92 % of control

CN(C)C(C#N)C(=O)c1ccc(Cl)cc1 (stereo not drawn)
inactive: [4] 91 % of control | [5] 95 % of control

COc1cc(C2c3c(cc(OC)c(O)c3OC)C=C(C(=O)O)C2CO)cc(OC)c1O (stereo not drawn)
inactive: dose: 50.0 mg/kg/injection, schedule: Q01DX001 (ip), vehicle: carboxymethylcellulose (CMC) 94 % of control | [6] 102 % of control | [7] 96 % of control | [8] 91 % of control

CC(=O)OCC1C(C)CCC1C(C)(C)OC(C)=O (stereo not drawn)
inactive: [9] 95 % of control | [10] 109 % of control | [4] 107 % of control | [11] 98 % of control

CCCCCCCCCCOc1ccc(/C=N\N=C\c2ccc(OCCCCCCCCCC)cc2)cc1
inactive: [12] 88 % of control | [13] 97 % of control | [14] 95 % of control

CCN=C(c1ccc(NC(=O)c2ccc(C(=O)Nc3ccc(C(=NCC)N(CC)C(=O)NC)cc3)cc2)cc1)N(CC)C(=O)NC
inactive: dose: 6.25 mg/kg/injection, schedule: Q01DX015 (ip), vehicle: methylcellulose (MC) 93 % of control | dose: 12.5 mg/kg/injection, schedule: Q01DX015 (ip), vehicle: methylcellulose (MC) 100 % of control

CCCCCOC(c1ccc2c(c1)OCO2)C(C)Br (stereo not drawn)
inactive: dose: 100.0 mg/kg/injection, schedule: Q04DX002 (ip), vehicle: saline 96 % of control | dose: 200.0 mg/kg/injection, schedule: Q04DX002 (ip), vehicle: saline 104 % of control | dose: 400.0 mg/kg/injection, schedule: Q04DX002 (ip), vehicle: saline 90 % of control

O=C(Nc1ccc(Cl)cc1)Oc1ccccn1
inactive: [12] 93 % of control | [13] 91 % of control | [14] 91 % of control

Nc1ncnc(N)c1NC(=O)c1cccc([N+](=O)[O-])c1
inactive: [15] 98 % of control | [16] 103 % of control | [17] 93 % of control

COc1cc(-c2ccc(N)c(OC)c2)ccc1N
inactive: dose: 62.5 mg/kg/injection, schedule: Q01DX Z (ip), vehicle: saline 90 % of control | dose: 222.0 mg/kg/injection, schedule: Q01DX Z (ip), vehicle: methylcellulose (MC) 108 % of control | dose: 333.0 mg/kg/injection, schedule: Q01DX Z (ip), vehicle: methylcellulose (MC) 90 % of control

Nc1ccc(Cl)c(C(=O)O)c1
inactive: [18] 111 % of control | [19] 121 % of control | [20] 105 % of control

NCC(=O)c1cccc2ccc[n+]([O-])c12
inactive: dose: 50.0 mg/kg/injection, schedule: Q01DX009 (ip), vehicle: Klucel (hydroxypropylcellulose) (HPC) 97 % of control | [18] 97 % of control | [15] 95 % of control | [16] 98 % of control

O=C1C2CCC1C(N1CCCC1)CC2 (stereo not drawn)
inactive: dose: 75.0 mg/kg/injection, schedule: Q01DX001 (ip), vehicle: saline 101 % of control | dose: 150.0 mg/kg/injection, schedule: Q01DX001 (ip), vehicle: saline 104 % of control

Cc1ccc2nc[nH]c(=O)c2c1
inactive: dose: 100.0 mg/kg/injection, schedule: Q04DX002 (ip), vehicle: Klucel (hydroxypropylcellulose) (HPC) 106 % of control | dose: 200.0 mg/kg/injection, schedule: Q04DX002 (ip), vehicle: Klucel (hydroxypropylcellulose) (HPC) 103 % of control | dose: 400.0 mg/kg/injection, schedule: Q04DX002 (ip), vehicle: Klucel (hydroxypropylcellulose) (HPC) 103 % of control

CC1=C(C)CC(c2ccccc2)C(C(=O)O)C1 (stereo not drawn)
inactive: dose: 176.0 mg/kg/injection, schedule: Q01DX001 (ip), vehicle: other 100 % of control | dose: 266.0 mg/kg/injection, schedule: Q01DX001 (ip), vehicle: other 100 % of control | dose: 400.0 mg/kg/injection, schedule: Q01DX001 (ip), vehicle: other 101 % of control

CC(N)Cc1ccc(O)cc1 (stereo not drawn)
inactive: dose: 25.0 mg/kg/injection, schedule: Q01DX009 (ip), vehicle: saline 108 % of control | [9] 100 % of control | dose: 50.0 mg/kg/injection, schedule: Q01DX009 (ip), vehicle: saline 103 % of control | [10] 94 % of control | [21] 101 % of control | [11] 96 % of control | [22] 93 % of control | [23] 100 % of control | [24] 94 % of control

Cc1cnc(C)c(C(O)c2ccccc2)n1 (stereo not drawn)
inactive: [25] 98 % of control | [4] 98 % of control | [5] 112 % of control | [26] 106 % of control

OC(C1CCCCC1)(C1CCCCC1)C1CCCCC1
inactive: [12] 101 % of control | [15] 91 % of control | [13] 96 % of control | [16] 92 % of control | [14] 96 % of control | [17] 96 % of control

N#CC(C#N)=C1CCCc2sccc21
inactive: [4] 90 % of control | [5] 95 % of control | [26] 92 % of control

CCCCCCCCCCCCOCCOCCOCC(N)=O
inactive: [21] 104 % of control | [11] 97 % of control | [22] 100 % of control | [23] 109 % of control | dose: 400.0 mg/kg/injection, schedule: Q01DX009 (ip), vehicle: saline 96 % of control | [24] 97 % of control

CC(=O)Nc1cccc2c1C(=O)c1ccccc1-2
inactive: [1] 102 % of control | [2] 112 % of control | [3] 102 % of control

Oc1ccc2ccccc2c1C=NCC1CCC(CN=Cc2c(O)ccc3ccccc23)CC1 (stereo not drawn)
inactive: [4] 91 % of control | [5] 95 % of control | [26] 88 % of control

CCOC(=O)Nc1cc(NCCCCc2ccccc2)c(N)c(N)n1
inactive: dose: 100.0 mg/kg/injection, schedule: Q01DX001 (ip), vehicle: saline with Tween-80 101 % of control | dose: 200.0 mg/kg/injection, schedule: Q01DX001 (ip), vehicle: saline with Tween-80 102 % of control

C(=N\n1cnnc1)/c1ccc2c(c1)CCC2
inactive: [1] 94 % of control | [2] 112 % of control | [3] 98 % of control

N#Cc1ccccc1CC(O)(c1ccccc1)c1ccccc1
inactive: [25] 96 % of control | [4] 102 % of control | [5] 93 % of control | [26] 91 % of control

O=C(NCCBr)Nc1ccccc1C(F)(F)F
inactive: [18] 103 % of control | [15] 112 % of control | [19] 105 % of control | [16] 103 % of control | [20] 107 % of control | [17] 93 % of control

Cc1ccc(S(=O)(=O)OC2CCC(OS(=O)(=O)c3ccc(C)cc3)C3CCCCC23)cc1 (stereo not drawn)
inactive: [6] 88 % of control | [7] 90 % of control | [8] 88 % of control

O=c1cc(C(O)c2ccccc2)c2cccc3c2n1CCC3 (stereo not drawn)
inactive: [12] 95 % of control | [1] 98 % of control | [13] 95 % of control | [2] 95 % of control | [14] 101 % of control | [3] 89 % of control
